Source: patent US20230190857A1, “PEPTIDE WITH AMIDATED CARBOXY TERMINUS HAVING MELANOGENESIS INHIBITORY ACTIVITY AND COMPOSITION COMPRISING SAME” (RUBY CROWN CO. LTD., priority 2018, published 2023)
“Also recorded” adds a separate entry of the source. Ends that are not written are not given here. Peptide text beside a SMILES is read from it.

Assays:
[1] = test system: B16-F10 cells; assay: Melanogenesis inhibitory activity (melanin content) in B16-F10 cells stimulated with α-MSH; format: cell-based, murine; conditions: for melanogenesis inhibitory effect of short peptides (melanin content): peptide 30 μM to 100 μM, FIG. 4a; for melanogenesis inhibitory effect of glycine derivatives (melanin content): various concentrations, FIG. 5a
Method: (§1) Cells were cultured in a humidified incubator at 37° C. and 5% CO2. Murine melanoma B16-F10 cell lines were cultured in Dulbecco' Modified Eagle Medium containing 10% fetal bovine serum and antibiotics (100 U/mL of penicillin, 0.1 mg/mL of streptomycin and 0.25 μg/mL of amphotericin B), which were purchased from the American Type Culture Collection (Manassas, Va., USA). A human epidermal melanocyte (HEM), derived from a pigmented human neonatal foreskin, was purchased from Cascade Biologics (Portland, Oreg., USA) and cultured in medium 254 containing human melanocyte growth supplements (Cascade Biologics) and antibiotics.
(§2) A melanin formation inhibitory effect of the peptide to be analyzed was confirmed by using B16-F10 cell lines and HEM. The B16-F10 cells were treated with test peptides at various concentrations and stimulated for 72 hours by using 100 nM of α-MSH. Hexapeptide B6 (Phe-Ser-His-His-Leu-Gly-NH2) (SEQ ID NO: 20), p-coumaric acid and arbutin were used as a control group. A level of extracellular melanin was measured by using a conditioned medium in which cells were previously cultured. Intracellular melanin was extracted at 60° C. for 60 minutes by using 1.0 M NaOH. A content of melanin was spectroscopically measured by measuring absorbance at 475 nm and resultant values were normalized with regard to a total protein content of cells by using Bio-Rad DC assay.

[2] = test system: human epidermal melanocyte (HEM); assay: Melanogenesis inhibitory activity (intracellular and extracellular melanin) in HEMs stimulated with α-MSH; format: cell-based; conditions: FIG. 6a
Method: as §1
as §2, with “assay. […]” for “assay.”

[3] = test system: human epidermal melanocyte (HEM); assay: Cell viability, MTT assay, HEMs; format: cell-based; conditions: FIG. 6b
Method: (§3) Cell viability was measured by using a 3-(4,5-dimethylthiazol-2-yl)-2,5-diphenyltetrazolium bromide (MTT) assay. B16-F10 cell lines were treated with test peptides at various concentrations for 72 hours. The cells were washed with PBS and cultured in 100 μl of culture fluid, to which 1 mg/mL of MTT (Amresco, Solon, Ohio, USA) was added, for three hours. After that, the culture fluid was removed therefrom and formazan accumulated inside the cells was extracted with 100 μl of dimethyl sulfoxide (DMSO). Absorbance of the extracted solution was measured at 595 nm by using SPECTROstar Nano microplate reader (BMG LABTECH GmbH, Ortenberg, Germany).
(§4) After the B16-F10 cells and HEM were treated with the peptides of Examples 1 to 4 according to the same method, cell viability was measured and the results thereof were summarized in FIGS. 1b, 2b, 3b, 4b, 5b, 6b and 7a respectively.

[4] = test system: cAMP-responsive element binding protein (CREB); assay: Western blotting, phosphorylation of CREB in B16-F10 cells; format: cell-based, murine; conditions: stimulated with α-MSH, FIG. 9a
Method: (§5) Western blotting was performed as described in a document [Study on phenolic compounds and novel peptides inhibiting UVB- and PM10-induced MMP1 expression and melanogenesis in skin cells. PhD Thesis 2017. Kyungpook National University, Korea]. B16-F10 cells were dissolved in 10 mM of cold Tris-HCl buffer solution (pH 7.2) containing 150 mM of NaCl, 5 mM of EDTA, 0.1% sodium dodecyl sulfate (SDS), 1% triton X-100, 1% deoxycholate, 1 mM of phenylmethylsulphonyl fluoride and protease inhibitor cocktail (Roche). A part of cytolysate (30 μg of protein) was mixed with Laemmli sample buffer, then heated at 95° C. for five minutes to be denaturalized, and then was subject to electrophoresis in 10% SDS-polyacrylamide gel. After the electrophoresis, protein was transferred from gel to polyvinylidene difluoride membrane (Amersham Pharmacia, Little Chalfont, UK). Primary antibodies for TYR, TYRP1, DCT, MITF and @-actin were purchased from Santa Cruz Biotechnology (Santa Cruz, Calif., USA). Primary antibodies for CREB, phospho-CREB (Ser133), extracellular signal-regulated kinase (ERK) and phospho-ERK (Thr202/Tyr204) were purchased from Cell Signaling (located in Danvers, Mass., USA). […] A protein band was visualized by using picoEPD Western Reagent kit (Elpis-Biotech, Daejeon, South Korea), and a depth of image was analyzed by using National Institutes of Health ImageJ program. […]

[5] = test system: B16-F10 cells; assay: Cell viability, MTT assay, B16-F10 cells; format: cell-based, murine; conditions: up to 300 μM, FIG. 7a
Method: as §3, §4

[6] = test system: tyrosinase (TYR); assay: Western blotting, TYR protein level in B16-F10 cells; format: cell-based, murine; conditions: both in the presence and in the absence of α-MSH, FIG. 8b
Method: (§6) Western blotting was performed as described in a document [Study on phenolic compounds and novel peptides inhibiting UVB- and PM10-induced MMP1 expression and melanogenesis in skin cells. PhD Thesis 2017. Kyungpook National University, Korea]. B16-F10 cells were dissolved in 10 mM of cold Tris-HCl buffer solution (pH 7.2) containing 150 mM of NaCl, 5 mM of EDTA, 0.1% sodium dodecyl sulfate (SDS), 1% triton X-100, 1% deoxycholate, 1 mM of phenylmethylsulphonyl fluoride and protease inhibitor cocktail (Roche). A part of cytolysate (30 μg of protein) was mixed with Laemmli sample buffer, then heated at 95° C. for five minutes to be denaturalized, and then was subject to electrophoresis in 10% SDS-polyacrylamide gel. After the electrophoresis, protein was transferred from gel to polyvinylidene difluoride membrane (Amersham Pharmacia, Little Chalfont, UK). Primary antibodies for TYR, TYRP1, DCT, MITF and @-actin were purchased from Santa Cruz Biotechnology (Santa Cruz, Calif., USA). Primary antibodies for CREB, phospho-CREB (Ser133), extracellular signal-regulated kinase (ERK) and phospho-ERK (Thr202/Tyr204) were purchased from Cell Signaling (located in Danvers, Mass., USA). […] A protein band was visualized by using picoEPD Western Reagent kit (Elpis-Biotech, Daejeon, South Korea), and a depth of image was analyzed by using National Institutes of Health ImageJ program.

[7] = test system: tyrosinase-related protein 1 (TYRP1); assay: Western blotting, TYRP1 protein level in B16-F10 cells; format: cell-based, murine; conditions: both in the presence and in the absence of α-MSH, FIG. 8b
Method: as §6

[8] = test system: microphthalmia-associated transcription factor (MITF); assay: Western blotting, MITF protein level in B16-F10 cells; format: cell-based, murine; conditions: stimulated with α-MSH, FIG. 9b
Method: as §5

[9] = test system: extracellular signal-regulated kinase (ERK); assay: Western blotting, phosphorylation of ERK in B16-F10 cells; format: cell-based, murine; conditions: stimulated with α-MSH, FIG. 9a
Method: as §5

[10] = test system: dopachrometautomerase (DCT); assay: Western blotting, DCT protein level in B16-F10 cells; format: cell-based, murine; conditions: both in the presence and in the absence of α-MSH, FIG. 8b
Method: as §6

[11] = test system: tyrosinase (TYR); assay: TYR activity assay in cell-free extract of treated B16-F10 cells; format: cell-based, murine; conditions: treated 60 minutes, then 100 nM α-MSH 24 hours, FIG. 8a
Method: B16-F10 cells were treated with glycinamide-HCl for 60 minutes and stimulated for 24 hours by using 100 nM of α-MSH. The cells were dissolved in 10 mM of cold Tris-HCl buffer solution (pH 7.4) containing 120 mM of sodium chloride, 25 mM of potassium chloride, 2.0 mM of ethylene glycol tetraacetic acid, 1.0 mM of ethylenediaminetetraacetic acid, 0.5% triton X-100, protease inhibitor cocktail (Roche, Mannheim, Germany). Cytolysate was centrifuged at 13,000×g at 4° C. for 15 minutes to obtain a cell-free extract therefrom. TYR activity was measured by using L-tyrosine and L-3,4-dihydroxyphenylalanine. A reaction mixture (200 μL) includes 100 mM of sodium phosphate (pH 6.8), 1.0 mM of L-tyrosine, 42 μM of L-3,4-dihydroxy phenylalanine and a cell-free extract (40 μg of protein), which was cultured at 37° C. A change in absorbance was measured at 475 nm by using Spectrostar Nano microplate reader.

Molecule: Arg-Trp-Gly-NH2 [E7]
- melanogenesis inhibitory effect of short peptides (melanin content) ([1]; 100 nM α-MSH, 72 hours): melanogenesis inhibitory activity higher than that of other tripeptides

Molecule: Phe-Trp-Gly-NH2 [E5]
- melanogenesis inhibitory effect of short peptides (melanin content) ([1]; 100 nM α-MSH, 72 hours): melanogenesis inhibitory activity higher than that of other tripeptides
- increase in content of intracellular and extracellular melanins in HEMs [2]: weakened

Molecule: Phe-Ser-His-His-Leu-Gly-NH2 (FSHHLG-NH2) [Hexa-peptide B6, reference compound]
- melanogenesis inhibitory effect of individual tetrapeptides (melanin content) ([1]; peptide 30 μM and 100 μM, 100 nM α-MSH, 72 hours, FIG. 2a): showed a melanogenesis inhibitory effect at 100 μM only

Molecule: NC(=O)CNC(=O)[C@@H](N)Cc1c[nH]c2ccccc12 [F1, Trp-Gly-NH2] (H-Trp-Gly-NH2)
- HEMs cell viability / cytotoxicity [3]: almost no cytotoxicity

Molecule: N=C(N)NCCC[C@H](N)C(=O)N[C@@H](Cc1ccccc1)C(=O)N[C@@H](Cc1c[nH]c2ccccc12)C(=O)NCC(N)=O [D3, Arg-Phe-Trp-Gly-NH2] (H-RFWG-NH2)
- HEMs cell viability / cytotoxicity [3]: almost no cytotoxicity

Molecule: NCC(=O)O [free glycine, glycine, reference compound]
- melanogenesis inhibitory effect of glycine derivatives (melanin content) ([1]; 100 nM α-MSH, 72 hours): no activity

Molecule: Phe-Arg-Trp-Gly (FRWG-NH2) [D9]
- melanogenesis inhibitory activity compared with p-coumaric acid and arbutin ([1]; peptide 10-30 μM, 100 nM α-MSH, 72 hours, molar comparison, FIG. 3a): melanogenesis inhibitory activity at a concentration lower than that of p-coumaric acid and arbutin; also recorded: the most powerful melanogenesis inhibitory effect

Molecule: NCC(N)=O [G1, glycinamide]
- melanogenesis inhibitory effect of glycine derivatives (melanin content) ([1]; 100 nM α-MSH, 72 hours): maintains anti-melanogenesis activity
- HEMs cell viability / cytotoxicity [3]: almost no cytotoxicity
- increase in content of intracellular and extracellular melanins in HEMs [2]: weakened

Molecule: CC(C)C[C@H](NC(=O)[C@@H](N)CCCNC(=N)N)C(=O)N[C@@H](Cc1c[nH]c2ccccc12)C(=O)NCC(N)=O [D5, Arg-Leu-Trp-Gly-NH2] (H-RLWG-NH2)
- HEMs cell viability / cytotoxicity [3]: almost no cytotoxicity

Molecule: Leu-Trp-Gly-NH2 [E6]
- melanogenesis inhibitory effect of short peptides (melanin content) ([1]; 100 nM α-MSH, 72 hours): melanogenesis inhibitory activity higher than that of other tripeptides

Molecule: Cl.NCC(N)=O [glycinamide-HCl]
- level of intracellular and extracellular melanins ([1]; 25-100 μM, cells stimulated with α-MSH, FIG. 7b): reduced
- phosphorylation of CREB [4]: inhibited
- cytotoxicity in B16-F10 cells [5]: did not cause any cytotoxicity
- protein level of TYR [6]: significantly reduced
- protein level of TYRP1 [7]: significantly reduced
- level of MITF expression increased by α-MSH [8]: weakened
- phosphorylation of ERK [9]: did not affect
- protein level of DCT [10]: significantly reduced
- TYR activity increased by α-MSH [11]: significantly weakened
